{"source": "patent US6395288B1", "about": "“Subversion of bacterial resistance by low solubility antibiotics” (Kent State University, priority 1998, dated 2002)", "key": {"[1]": {"assay": "Local (cellular) toxicity in vitro, fluorescein assay", "details": "FS-TET disks at solubility limit (TET-HCl 20 mg/mL, TET free base 1 mg/mL)"}, "[2]": {"test_system": "MDR isotype of S. aureus (ATCC 27659)", "assay": "Agar diffusion zone of growth inhibition, antibiotics delivered from fibrin sealant", "type": "cell-based, Staphylococcus aureus", "details": "in vitro, 6 mm wells filled with fibrin sealant with antibiotic, 18 h at 37° C., FIG. 2", "protocol": "The method used was that of Barry,Am. Journal of Clinical Pathology, 53:149 (1970), incorporated herein by reference, with modifications. Briefly, antibiotic bioactivity was assessed by agar diffusion where the agar hydrogel was seeded with bacteria prior to solidification. Several 6 mm wells were cut into the agar, the plugs were removed by aspiration and the wells were filled with the fibrin sealant hydrogel containing various concentrations of low-solubility antibiotics. Cultures were incubated for 18 h at 37° C. Zones of growth inhibition—the area about the well where diffused antibiotic prevents growth of seeded bacteria—were recorded to the nearest mm and graphed in FIG. 2. The zone of inhibition required to document bacterial susceptibility to a particular concentration of antibiotic is indicated by a black horizontal bar. […] Moreover, increasing the local concentration of low solubility antibiotics released from fibrin sealant effectively overcomes S. aureus resistance in vitro."}, "[3]": {"test_system": "non-multi-drug resistant (NMDR) peritonitis", "assay": "Prophylactic protection against lethal NMDR peritonitis in mice", "type": "in vivo", "details": "prophylactic treatment, 500 mg/kg"}}, "data": [{"smiles": "CN(C)[C@@H]1C(=O)C(C(N)=O)=C(O)[C@@]2(O)C(=O)C3=C(O)c4c(O)cccc4[C@@](C)(O)[C@H]3C[C@@H]12.Cl", "note": "[TET-HCl]", "values": [{"measurement": "local (cellular) toxicity, fluorescein assay", "setting": "[1]", "result": "acutely toxic"}]}, {"smiles": "[H]/N=C(/N)N[C@H]1[C@H](O)[C@@H](O)[C@H](O[C@@H]2O[C@@H](C)[C@](O)(C=O)[C@H]2O[C@@H]2O[C@@H](CO)[C@H](O)[C@@H](O)[C@@H]2NC)[C@@H](N/C(N)=N\\[H])[C@@H]1O", "note": "[streptomycin]", "values": [{"measurement": "growth inhibition (zone of growth inhibition)", "setting": "[2]", "result": "appeared effective in vitro"}]}, {"smiles": "CN(C)[C@@H]1C(O)=C(C(N)=O)C(=O)[C@@]2(O)C(O)=C3C(=O)c4c(O)cccc4[C@@](C)(O)[C@H]3C[C@@H]12", "note": "[tetracycline]", "values": [{"measurement": "protection against a lethal dose of NMDR peritonitis", "setting": "[3]", "result": 100, "unit": "%"}]}]}
